Measurements published in ChEMBL document CHEMBL3784958, “Disposition of sodium valproate in epileptic patients” (Br J Clin Pharmacol, 1978).

Key:
[1] = Initial plasma concentration in epileptic patient (6 patients) at 800 mg, iv administered as single dose by gas liquid chromatographic method; type: ADME, organism-based; conditions: human
[2] = Elimination rate constant in epileptic patient (6 patients) at 800 mg, iv administered as single dose by gas liquid chromatographic method; type: ADME, organism-based; conditions: human, in vivo
[3] = Half life in epileptic patient (6 patients) at 800 mg, iv administered as single dose by gas liquid chromatographic method; type: ADME, organism-based; conditions: human, in vivo
[4] = Extrapolated volume of distribution in epileptic patient (6 patients) at 800 mg, iv administered as single dose by gas liquid chromatographic method; type: ADME, organism-based; conditions: human, in vivo
[5] = Volume of distribution (area) in epileptic patient (6 patients) at 800 mg, iv administered as single dose by gas liquid chromatographic method; type: ADME, organism-based; conditions: human, in vivo
[6] = Apparent volume of distribution in epileptic patient (6 patients) at 800 mg, iv administered as single dose by gas liquid chromatographic method; type: ADME, organism-based; conditions: human, in vivo, read-out: Vd(app)
[7] = AUC (0 to 48 hrs) in epileptic patient (6 patients) at 800 mg, iv administered as single dose by gas liquid chromatographic method; type: ADME, organism-based; parameters: dose 800 mg, time < 48 hr, route intravenous; conditions: human, in vivo
[8] = AUC (0 to infinity) in epileptic patient (6 patients) at 800 mg, iv administered as single dose by gas liquid chromatographic method; type: ADME, organism-based; parameters: dose 800 mg, route intravenous, time infinity; conditions: human, in vivo
[9] = Total clearance in epileptic patient (6 patients) at 800 mg, iv administered as single dose by gas liquid chromatographic method; type: ADME, organism-based; conditions: human, in vivo
[10] = Cmax in epileptic patient (6 patients) at 800 mg, po administered as single dose by gas liquid chromatographic method; type: ADME, organism-based; parameters: dose 800 mg, route oral; conditions: human, in vivo
[11] = Tmax in epileptic patient (6 patients) at 800 mg, po administered as single dose by gas liquid chromatographic method; type: ADME, organism-based; conditions: human, in vivo
[12] = Elimination rate constant in epileptic patient (6 patients) at 800 mg, po administered as single dose by gas liquid chromatographic method; type: ADME, organism-based; conditions: human, in vivo
[13] = Half life in epileptic patient (6 patients) at 800 mg, po administered as single dose by gas liquid chromatographic method; type: ADME, organism-based; conditions: human, in vivo
Homo sapiens [14] = assay: Extrapolated volume of distribution in epileptic patient (6 patients) at 800 mg, po administered as single dose by gas liquid chromatographic method; type: ADME, organism-based; conditions: in vivo
Homo sapiens [15] = assay: Volume of distribution (area) in epileptic patient (6 patients) at 800 mg, po administered as single dose by gas liquid chromatographic method; type: ADME, organism-based; conditions: in vivo
[16] = AUC (0 to 48 hrs) in epileptic patient (6 patients) at 800 mg, po administered as single dose by gas liquid chromatographic method; type: ADME, organism-based; parameters: dose 800 mg, time < 48 hr, route oral; conditions: human, in vivo
[17] = AUC (0 to infinity) in epileptic patient (6 patients) at 800 mg, po administered as single dose by gas liquid chromatographic method; type: ADME, organism-based; parameters: dose 800 mg, route oral, time infinity; conditions: human, in vivo
[18] = Elimination rate constant in healthy volunteer (6 volunteers) at 800 mg, iv administered as single dose by gas liquid chromatographic method; type: ADME, organism-based; conditions: human, in vivo
[19] = Half life in healthy volunteer (6 volunteers) at 800 mg, iv administered as single dose by gas liquid chromatographic method; type: ADME, organism-based; conditions: human, in vivo
[20] = Volume of distribution (area) in healthy volunteer (6 volunteers) at 800 mg, iv administered as single dose by gas liquid chromatographic method; type: ADME, organism-based; conditions: human, in vivo
[21] = Apparent volume of distribution in healthy volunteer (6 volunteers) at 800 mg, iv administered as single dose by gas liquid chromatographic method; type: ADME, organism-based; conditions: human, in vivo, read-out: Vd(app)
[22] = Total clearance in healthy volunteer (6 volunteers) at 800 mg, iv administered as single dose by gas liquid chromatographic method; type: ADME, organism-based; conditions: human, in vivo
[23] = Tmax in healthy volunteer (6 volunteers) at 800 mg, po administered as single dose by gas liquid chromatographic method; type: ADME, organism-based; conditions: human, in vivo
[24] = Oral bioavailability in epileptic patient (6 patients) at 800 mg administered as single dose by gas liquid chromatographic method; type: ADME, organism-based; conditions: human, in vivo
Homo sapiens [25] = assay: Toxicity in epileptic patient (6 patients) at 800 mg, po and iv administered as single dose by gas liquid chromatographic method; type: organism-based; conditions: in vivo

## CCCC(CCC)C(=O)[O-].[Na+] [VALPROATE SODIUM]
[1]
  C0: 58.5 µg/mL
[2]
  k el: 2.21e-05 s⁻¹
[3]
  half-life: 9 h
[4]
  Vd: 13.8 L
[5]
  Vd: 12.8 L
[6]
  Vd: 0.175 L/kg
[7]
  AUC(0-t) at 48 h: 785 µg·h/mL
[8]
  AUC(0-inf): 807 µg·h/mL
[9]
  clearance: 16.7 mL/min
[10]
  Cmax: 71.8 µg/mL
[11]
  Tmax: 1.2 h
[12]
  k el: 2.17e-05 s⁻¹
[13]
  half-life: 9 h
Homo sapiens [14]
  Vd: 13.1 L
Homo sapiens [15]
  Vd: 12.9 L
[16]
  AUC(0-t) at 48 h: 749 µg·h/mL
[17]
  AUC(0-inf): 771 µg·h/mL
[18]
  k el: 1.52e-05 s⁻¹
[19]
  half-life: 12.8 h
[20]
  Vd: 10 L
[21]
  Vd: 0.147 L/kg
[22]
  clearance: 9 mL/min
[23]
  Tmax: 1.8 h
[24]
  bioavailability: 96%
Homo sapiens [25]
  Activity: Non-toxic
